Data taken from patent EP2057185B1, “POLYMYXIN DERIVATIVES AND USES THEREOF” (Northern Antibiotics Oy, priority 2006, dated 2008).
Bridge positions count the residues as written; N and C are the ends. Square brackets hold non-standard residues; d marks the D form. Peptide text beside a SMILES is read from it. * marks the point of attachment. Octanoyl = CCCCCCCC(=O)*; Dab = NCC[C@H](N)C(=O)O; Abu = CC[C@H](N)C(=O)O

Key:
E. coli IH3080 [1] = assay: Growth inhibition around wells on LB plates containing rifampin (sensitization); type: cell-based, Escherichia coli; settings: well containing 4 µg of compound; for Antibacterial activity in the presence of rifampin concn (µg/ml) of 0: plates with no rifampin; for Antibacterial activity in the presence of rifampin concn (µg/ml) of 0.1: rifampin 0.1 µg/ml; for Antibacterial activity in the presence of rifampin concn (µg/ml) of 1.0: rifampin 1.0 µg/ml
Procedure: From an overnight-grown culture of IH3080 on LB agar, a suspension of approx. 10^8 cells/ml was prepared in 0.9% NaCl. Aliquots of this suspension were then pipetted on the agar plates and the plates were gently shaken to spread the suspension evenly on the entire surface of the plate. Thereafter, the unabsorbed part of the suspension was removed by using a Pasteur pipette. After the surface had dried, small wells (diameter, 2 mm) were drilled on the plates (five wells per plate) by using a sterile sharp-edged narrow metal tube, single-use pipette tip, and vacuum suction. […] Controls included 0.9% NaCl solution without the compound to be tested. The plates were then incubated for 18 h at 37°C whereafter the diameters of growth inhibition zones around each well were measured; the diameter of the well itself was […]. Finally, the diameters were converted to surface areas of growth inhibition (in square mm). […] Louis, MO, U.S.A).

A. baumannii ATCC 19606 = assay: Growth inhibition around wells on LB agar plates; type: cell-based, Acinetobacter baumannii; settings: for Antibacterial activity 4 µg: growth inhibition area around a well containing 4 µg; for Antibacterial activity 10 µg: growth inhibition area around a well containing 10 µg
Procedure: (§1) From an overnight-grown culture of IH3080 on LB agar, a suspension of approx. 10^8 cells/ml was prepared in 0.9% NaCl. Aliquots of this suspension were then pipetted on the agar plates and the plates were gently shaken to spread the suspension evenly on the entire surface of the plate. Thereafter, the unabsorbed part of the suspension was removed by using a Pasteur pipette. After the surface had dried, small wells (diameter, 2 mm) were drilled on the plates (five wells per plate) by using a sterile sharp-edged narrow metal tube, single-use pipette tip, and vacuum suction. Samples (4 µl and 10 µl) of the peptide solution in 0.9% NaCl (at concentrations of 1 µg/ml and 0.1 µg/ml) were then pipetted to the wells and the sample fluids were allowed to absorb. Controls included 0.9% NaCl solution without the compound to be tested. The plates were then incubated for 18 h at 37°C whereafter the diameters of growth inhibition zones around each well were measured; the diameter of the well itself was […]. Finally, the diameters were converted to surface areas of growth inhibition (in square mm).
(§2) Direct antibacterial activity of twelve NAB compounds against Acinetobacter baumannii ATCC 19606 and Pseudomonas aeruginosa ATCC 27853 was tested by using the susceptibility determination method described in Example 2. Five compounds (NAB7062, NAB734, NAB737, NAB739, and NAB740) had notable activity against A. baumannii. […] The antibacterial activity of NAB739 and NAB740 were as strong as or even stronger than that of polymyxin B.

K. pneumoniae ATCC13883 = system: K. pneumoniae ATCC13883
Procedure: (§3) MICs were determined by using E-strips (Biodisk Ltd., Solna, Sweden) according to the manufacturer's instructions.
(§4) The strains originated from ATCC (11 strains), CCUG (11 strains), and NCTC (The National Collection of Type Cultures, Colindale, U.K.; 2 strains). Eight strains (the F-strains) were purchased from Mobidiag Ltd., Helsinki, Finland.

E. cloacae ATCC23355 = system: E. cloacae ATCC23355
Procedure: as §3, §4

E. coli IH3080 [2] = system: E. coli IH3080
Procedure: as §3, §4

[3] = Two-week intravenous toxicity study in young rats; type: in vivo; settings: for rise of blood urea nitrogen (BUN) over control or low dose group: 16 mg/kg/day
Procedure: Toxicity in young rats (weighing approx. 150 g in the beginning of the study) was determined by administering doses (1, 2, 4, 8, 16, and 32 mg/kg per day) of NAB7061 as well as the control compound polymyxin B intravenously twice (2) a day for two weeks. A group of ten (10) rats was studied for each dosis regimen. Clinical observations were made daily, the body weight measured twice weekly, and the food consumption twice weekly. In the end of week 2, all animals were sacrificed.
Histopathology of kidneys was performed for each animals and histopathology of all tissues was performed in three high-dose groups receiving NAB7061.

[4] = system: Ps. aeruginosa ATCC 27853; assay: Growth inhibition around wells on LB agar plates; type: cell-based, Pseudomonas aeruginosa; settings: for Antibacterial activity 4 µg: growth inhibition area around a well containing 4 µg; for Antibacterial activity 10 µg: growth inhibition area around a well containing 10 µg
Procedure: as §1, §2

E. coli IH3080 [5] = assay: Growth inhibition around wells on LB agar plates; type: cell-based, Escherichia coli; settings: 18 h at 37°C; for Antibacterial activity at 4 µg: growth inhibition area around a well containing 4 µg of compound; for Antibacterial activity at 10 µg: growth inhibition area around a well containing 10 µg of compound
Procedure: Peptides synthesized in Example 1, all carrying at least two (2) but not more than three (3) positive charges, were studied for their ability to inhibit the growth of E. coli. This was tested employing LB agar (LB Agar Lennox, Difco, BD, Sparks, MD, U.S.A) plates. The indicator organism E. coli IH3080 (K1:O18) was an encapsulated strain originally isolated from a neonate suffering from meningitis (Vaara et al. 1984) and obtained from National Public Health Institute, Helsinki, Finland.
From an overnight-grown culture of IH3080 on LB agar, a suspension of approx. 10^8 cells/ml was prepared in 0.9% NaCl. Aliquots of this suspension were then pipetted on the agar plates and the plates were gently shaken to spread the suspension evenly on the entire surface of the plate. Thereafter, the unabsorbed part of the suspension was removed by using a Pasteur pipette. After the surface had dried, small wells (diameter, 2 mm) were drilled on the plates (five wells per plate) by using a sterile sharp-edged narrow metal tube, single-use pipette tip, and vacuum suction. […] Controls included 0.9% NaCl solution without the compound to be tested. The plates were then incubated for 18 h at 37°C whereafter the diameters of growth inhibition zones around each well were measured; the diameter of the well itself was […]. Finally, the diameters were converted to surface areas of growth inhibition (in square mm).

E. coli IH3080 (O18:K1) = assay: Synergistic bactericidal activity with guinea pig serum (complement); type: cell-based, Escherichia coli; settings: none (PBS)
[6] = K. pneumoniae ATCC1 3883, 4 µg/ml of NAB 7061
[7] = E. cloacae ATCC23355, 4 µg/ml of NAB 7061
[8] = E. coli IH3080, 4 µg/ml of NAB 7061

Polymyxin B
Antibacterial activity in the presence of rifampin concn (µg/ml) of 0 (E. coli IH3080 [1]): 79 square millimeters | Antibacterial activity in the presence of rifampin concn (µg/ml) of 0.1 (E. coli IH3080 [1]): 95 square millimeters | Antibacterial activity in the presence of rifampin concn (µg/ml) of 1.0 (E. coli IH3080 [1]): 104 square millimeters | Antibacterial activity 4 µg (A. baumannii ATCC 19606): 113 square millimeters | Antibacterial activity 10 µg (A. baumannii ATCC 19606): 154 square millimeters | Sensitization factor (K. pneumoniae ATCC13883; ratio of the MIC of the antibiotic in the absence of NAB 7061 to that in the presence of 4 µg/ml of NAB 7061, K. pneum. ATCC 13883): 1 | Sensitization factor (E. cloacae ATCC23355; ratio of the MIC of the antibiotic in the absence of NAB 7061 to that in the presence of 4 µg/ml of NAB 7061, E. cloacae ATCC 23355): 4 | Sensitization factor (E. coli IH3080 [2]; ratio of the MIC of the antibiotic in the absence of NAB 7061 to that in the presence of 4 µg/ml of NAB 7061, E. coli IH 3080): 2 | rise of blood urea nitrogen (BUN) over control or low dose group ([3]; rat, in vivo): 15% | mortality ([3]; rats, 32 mg/kg per day intravenously, two weeks): 100% | Antibacterial activity 4 µg [4]: 95 square millimeters | Antibacterial activity 10 µg [4]: 133 square millimeters | Antibacterial activity at 4 µg (E. coli IH3080 [5]): 79 square millimeters | Antibacterial activity at 4 µg (E. coli IH3080 [5]; listed as Polymyxin B sulfate): 95 square millimeters | Antibacterial activity at 10 µg (E. coli IH3080 [5]): 133 square millimeters

CCCCCCCC(=O)N[C@H](C(=O)N[C@@H](CC)C(=O)N[C@H]1CCNC(=O)[C@H]([C@@H](C)O)NC(=O)[C@H](CCN)NC(=O)[C@H](CCN)NC(=O)[C@H](CC(C)C)NC(=O)[C@@H](Cc2ccccc2)NC(=O)[C@H](CCN)NC1=O)[C@@H](C)O [NAB 7061, OA-Thr-Abu-cy[Dab-Dab-DPhe-Leu-Dab-Dab-Thr-]] (Octanoyl-T[Abu][Dab][Dab][dF]L[Dab][Dab]T; lactam 3-C)
Antibacterial activity in the presence of rifampin concn (µg/ml) of 0 (E. coli IH3080 [1]): 0 square millimeters | Antibacterial activity in the presence of rifampin concn (µg/ml) of 0.1 (E. coli IH3080 [1]): […] | Antibacterial activity in the presence of rifampin concn (µg/ml) of 1.0 (E. coli IH3080 [1]): 155 square millimeters | Antibacterial activity 4 µg (A. baumannii ATCC 19606): 0 square millimeters | Antibacterial activity 10 µg (A. baumannii ATCC 19606): 0 square millimeters | MIC (µg/ml) of clarithromycin in the presence of 4 µg/ml of NAB 7061 (K. pneumoniae ATCC13883; K. pneumoniae ATCC1 3883): […] | MIC (µg/ml) of rifampin in the presence of 4 µg/ml of NAB 7061 (K. pneumoniae ATCC13883; K. pneumoniae ATCC1 3883): […] | Sensitization factor to clarithromycin (K. pneumoniae ATCC13883; [6]): […] | Sensitization factor to rifampin (K. pneumoniae ATCC13883; [6]): […] | MIC of NAB7061 (K. pneumoniae ATCC13883; K. pneumoniae ATCC13883, Mueller-Hinton agar): […] | MIC (µg/ml) of clarithromycin in the presence of 4 µg/ml of NAB 7061 (E. cloacae ATCC23355; E. cloacae ATCC23355): 0,25 - 0,75 µg/ml | MIC (µg/ml) of rifampin in the presence of 4 µg/ml of NAB 7061 (E. cloacae ATCC23355; E. cloacae ATCC23355): 0,008 - 0,016 µg/ml | Sensitization factor to clarithromycin (E. cloacae ATCC23355; [7]): […] | Sensitization factor to rifampin (E. cloacae ATCC23355; [7]): […] | MIC of NAB7061 (E. cloacae ATCC23355; E. cloacae ATCC23355, Mueller-Hinton agar): […] | MIC (µg/ml) of clarithromycin in the presence of 4 µg/ml of NAB 7061 (E. coli IH3080 [2]; E. coli IH3080): […] | MIC (µg/ml) of rifampin in the presence of 4 µg/ml of NAB 7061 (E. coli IH3080 [2]; E. coli IH3080): […] | Sensitization factor to clarithromycin (E. coli IH3080 [2]; [8]): […] | Sensitization factor to rifampin (E. coli IH3080 [2]; [8]): […] | MIC of NAB7061 (E. coli IH3080 [2]; E. coli IH3080, Mueller-Hinton agar): […] | rise of blood urea nitrogen (BUN) over control or low dose group ([3]; rat, in vivo): no such a rise was found | general pathology and histopathology of organs and kidneys ([3]; rat, in vivo, iv): No NAB7061-related pathological findings | lowest dose that negatively influenced the body weight gain ([3]; rat, in vivo, iv): 8 mg/kg | rise of blood urea nitrogen (BUN) ([3]; rats, 32 mg/kg per day, end of the study): 7% | survival ([3]; rats, 1 to 32 mg/kg per day intravenously, two weeks): all rats receiving NAB7061 remained alive throughout the study | Antibacterial activity 4 µg [4]: 0 square millimeters | Antibacterial activity 10 µg [4]: 0 square millimeters | Antibacterial activity at 4 µg (E. coli IH3080 [5]): 0 square millimeters | Antibacterial activity at 10 µg (E. coli IH3080 [5]): 50 square millimeters | % survival after 2-hour treatment at 37°C (E. coli IH3080 (O18:K1); NAB7061 1 µg/ml): 97% | % survival after 2-hour treatment at 37°C (E. coli IH3080 (O18:K1); NAB7061 2 µg/ml): 97% | % survival after 2-hour treatment at 37°C (E. coli IH3080 (O18:K1); NAB7061 4 µg/ml): 79%
